Measured values from US8816097B2, “Active ingredient combinations having insecticide and acaricide properties” (Bayer CropScience AG, priority 2006, dated 2014).

Columns and labels:
[1] = system: green peach aphid (Myzus persicae); assay: Myzus persicae test (sprayed cabbage leaves); type: in vivo; conditions: single active compound, 100 g/ha
Description: (§1) Solvents: 78 parts by weight of acetone

[2] = system: two-spotted spider mite (Tetranychus urticae); assay: Tetranychus urticae test (sprayed dwarf bean leaves); type: in vivo; conditions: single active compound
Description: as §1

[3] = system: larvae of the mustard beetle (Phaedon cochleariae); assay: Phaedon cochleariae larvae test (sprayed cabbage leaves); conditions: single active compound, 100 g/ha
[4] = system: larvae of the army worm (Spodoptera frugiperda); assay: Spodoptera frugiperda test (sprayed cabbage leaves); type: in vivo; conditions: single active compound, 100 g/ha
Description: as §1

SMILES	Kill level in % after 6d [1] [%]	Kill rate in % after 2d ([2]; 0.8 g/ha) [%]	Kill level in % after 6d [3] [%]	Kill level in % after 6d [4] [%]	Kill rate in % after 2d ([2]; 0.032 g/ha) [%]	Kill rate in % after 2d ([2]; 0.16 g/ha) [%]
Cc1nn(C)c(/C(OC(=O)C(C)(C)C)=C(\C#N)c2ccc(C(C)(C)C)cc2)c1C [Cyenopyrafen, (1E)-2-cyano-2-[4-(1,1-dimethylethyl)phenyl]-1-(1,3,4-trimethyl-1H-pyrazol-5-yl)ethenyl 2,2-dimethylpropanoate]	0	80	50			
COCCOC(=O)C(C#N)(C(=O)c1ccccc1C(F)(F)F)c1ccc(C(C)(C)C)cc1 (stereo not drawn) [Cyflumetofen, 2-methoxyethyl alpha-cyano-alpha-[4-(1,1-dimethylethyl)phenyl]-beta-oxo-2-(trifluoromethyl)benzenepropanoate]	0	20	0	0		
CSC(=O)O/C(=C(/C#N)c1ccc(Cl)cc1)c1ccccc1C(F)(F)F [IKA 2002]		0	33	0	0	
CCC(C)(C)C(=O)OC1=C(c2ccc(Cl)cc2Cl)C(=O)OC12CCCCC2 [Spirodiclofen]		10				
Cc1cc(C)c(C2=C(OC(=O)CC(C)(C)C)C3(CCCC3)OC2=O)c(C)c1 [Spiromesifen]	70	10				0
CCOC(=O)OC1=C(c2cc(C)ccc2C)C(=O)N[C@]12CC[C@@H](OC)CC2 [Spirotetramat]		0	33	50		
